Reference: a melting point compilation (Tetko et al.; mined from patent text by program, amines drawn as free bases though some values may be those of a salt)

Row | melting point [°C] | Structure (SMILES)
1 | 88 to 90 | CCCCOC(=O)c1c(Cl)nc(CCCC)n1Cc1ccc2oc(-c3ccccc3-c3nnn[nH]3)c(Br)c2c1
2 | 139 to 140 | CSc1ccc(N(C)S(=O)(=O)c2ccc(C)cc2)c(C#N)c1
3 | 243 | O=C(O)c1cc(NCc2ccccc2)c(Nc2ccccc2)c(S(=O)(=O)Nc2ccccc2)c1
4 | 52 to 55 | COCC1=C(C(=O)OC)[C@H](c2ccc(F)c(F)c2)N(C(=O)NCCC(=O)O)C(=O)N1
5 | 207 to 210 | Cc1cccc(Nc2cc(Nc3ccc(OCC#N)cc3)ncn2)c1
6 | 117 to 119 | CSCC(O)(Cn1cncn1)c1ccc(Cl)cc1Cl (stereo not given)
7 | 175 to 183 | Cc1cc(CCCOc2c(C)cc(-c3noc(=N)[nH]3)cc2C)on1
8 | 130 to 131 | COc1cc2ccn(C(=O)c3ccc(-c4ccc(-c5noc(C)n5)cc4C)cc3)c2cc1OCCN(C)C
9 | 272 to 273 | CN(C)C(=O)c1nc(-c2cnccn2)nc2c1c1ccc(Cl)cc1n2C
10 | 92 to 93 | CC(O)CN1CCN(c2cccccc2=O)CC1 (stereo not given)
11 | 275 to 282 | Cc1ccnc(Nc2nc(-c3ccc(OC(F)(F)F)cc3)cs2)c1
12 | 155 to 156 | CCOC(=O)C(C#N)=CNc1ccc(CC)cn1
13 | 48 to 49 | C#CCCCOc1c(C)cc(C#N)cc1C
14 | 182 to 185 | N=C(N)c1noc2cc([N+](=O)[O-])ccc12
15 | 135 to 136 | COc1ccc2c(c1)N(C)C(=S)C2
16 | 142 to 144 | CC(=O)OCc1nn(-c2ccc(F)cc2)c2c1CCCC2Cc1cccc2ccccc12 (stereo not given)
17 | 133 to 135 | CS(=O)(=O)Nc1ccc(C#N)cc1C(O)c1ccc(F)cc1F (stereo not given)
18 | 168 to 170 | Cc1c(C(=O)CS(=O)Cc2ccc(Cl)cc2)sc2ccc(Cl)cc12 (stereo not given)
19 | 117 to 120 | CNCC(O)C1=CNC2C=CC=CC12 (stereo not given)
20 | 134 | C=CCCC(O)=C(C#N)C(=O)Nc1ccc(Cl)c(C)c1
21 | 210 to 213 | COc1cc(COc2ccc3nc(NC(=O)Oc4ccccc4)cn3n2)cc(OC)c1OC
22 | 106 to 107 | O=C(Nc1cn(C2CCCCO2)nc1C(=O)NCCCOc1ccccc1)c1ccccn1 (stereo not given)

Row | melting point [°C] | Structure (SMILES)
23 | 89 to 91 | Nc1cccc(SC(CCc2ccc(Cl)cc2)Cn2ccnc2)c1 (stereo not given)
24 | 114 to 115 | Fc1ccccc1/C=C/c1ccc(N(c2ccccc2)c2ccccc2)cc1
25 | > 300 | O=[N+]([O-])c1cc(-c2nc3ccccc3[nH]2)cc(O)c1O
26 | 194 to 195 | CN[C@@H]1CN(c2cc3c(cc2F)c(=O)c(C(=O)O)cn3C(C)(C)C)[C@H]1C (relative stereo)
27 | 198 to 199 | CCCc1nc2c(N)nc3ccccc3c2n1OCC
28 | 190 to 196 | Oc1ccc(C2N(c3ccccc3)CCN2c2ccccc2)c2cccnc12
29 | 91 to 93 | COc1ccc(-n2nc(CCCNO)cc2-c2ccc(Cl)cc2)cc1
30 | 234 to 235 | O=C(O)CCc1c(C(=O)O)[nH]c2cc(Br)ccc12
31 | 161 | Cc1ccc(S(=O)(=O)Oc2ccc(S(=O)(=O)Cc3cccnn3)cc2)cc1
32 | 264 | O=c1[nH]n(-c2ccnc(N[C@H]3CC[C@H](O)CC3)n2)c2ccccc12
33 | 154 to 155 | COc1cccc2c1nc(-c1c(F)cccc1F)n2Cc1c(F)cccc1F
34 | 67 | CN1CCc2c(Cl)csc2C(c2ccccc2)C1 (stereo not given)
35 | 58 to 59 | Cc1c(OCCCl)cccc1[N+](=O)[O-]
36 | 105 to 108 | CCCCCCCCSC(CCCCC)CCn1ccnc1 (stereo not given)
37 | 50 | CC(C)(C)OC(=O)N1CCC(CNC(=O)[C@@H]2CCCN2C(=O)OCc2ccccc2)CC1
38 | 131 | COc1ccc2[nH]cc(-c3cc4c(OC)ncnc4n3S(=O)(=O)c3ccc(C)cc3)c2c1
39 | 77 to 81 | Cc1cc(F)ccc1-c1nc(OCC(CO)CO)nc2c1ccc(=O)n2-c1c(F)cccc1F
40 | 110 to 112 | N#Cc1cccc(Oc2ccccc2)c1C#N
41 | 47 to 48 | Cc1cc(Br)cc(C)c1OCCO
42 | 298 | COc1ccc(C(=O)Nc2c(Cl)cncc2Cl)c2c1oc1ccc(C(F)(F)F)cc12
43 | 85 to 96 | CNC(=O)c1ccc(Nc2nc(Nc3cc4c(cc3OC)CCN(Cc3ncco3)CC4)ncc2Cl)c(OC)c1
44 | 173 to 175 | CC1(C)Cc2c(Cl)cccc2C1N=CNC#N (stereo not given)

Row | melting point [°C] | Structure (SMILES)
45 | 63 to 65 | CCCc1c(OCCCSc2cccc(CC(=O)OC)c2F)ccc(C(C)=O)c1O
46 | 93 to 94 | O=C(N[C@H]1CCOC1=O)[C@H](Cc1ccccc1)NS(=O)(=O)c1cccc2ccccc12
47 | 194 to 195 | CCOC(=O)CNc1cc(F)ccc1[N+](=O)[O-]
48 | 174 to 175 | CC1(C)CC2(CC(C)(C)c3ccc(Oc4cccc([N+](=O)[O-])c4)cc32)c2cc(Oc3cccc([N+](=O)[O-])c3)ccc21
49 | 35 | CC(O)C1CCCCCCCCCCC1 (stereo not given)
50 | 117 to 118 | C#Cc1cnc2c(c1)C(=O)N(C)c1cccnc1N2CC
51 | 58 to 61 | CCOCCOCCOCCOc1ccc(OCCCCCCCCCCCCOc2ccccc2)cc1N(CC(=O)O)CC(=O)O
52 | 199 to 201 | CCC(O)(CC)c1cccc2[nH]c(=O)n(C)c12
53 | 188 to 190 | Cc1ccccc1CC(=O)Nc1cc(C)c(S(=O)(=O)C[N+](=O)[O-])c(C)c1
54 | 181 to 183 | CC(C)(C)CC(NC(=O)c1ccc(Cl)cc1)NC(=NC#N)Nc1cccnc1 (stereo not given)
55 | 126 to 127 | Cc1ccccc1-n1nccc1-c1nn(-c2cccc(C(F)(F)F)c2)ccc1=O
56 | 134 to 136 | Cc1cc(C)nc(N(CCN(C(C)C)C(C)C)C(N)=O)n1
57 | 173 to 175 | CCCc1nnc2ccc(-c3ccc(C(F)(F)F)cc3)nn12
58 | 224 to 225 | O=C(Nc1cccc2c(=O)cc(C(=O)O)oc12)c1cc(Cl)c2c(c1)CC(CCCc1ccccc1)O2 (stereo not given)
59 | 149 to 151 | CC(C)n1nc(-c2sc(NC3CCCCC3)nc2-c2ccccc2)ccc1=O
60 | 206 to 212 | CC[C@H](C)[C@@H](CO)NC(=O)C[C@H](O)[C@H](CC(C)C)NC(=O)[C@H](CC(C)C)NC(=O)[C@H](Cc1cccc2ccccc12)NC(=O)OCc1ccccc1
61 | 192 to 193 | C#Cc1ccc(-c2c(C)nnc(OC)c2-c2c(F)cc(OC)cc2F)cc1
62 | 208 | O=C(Nc1ccc(C[C@H](NS(=O)(=O)N2CCCCC2)C(=O)O)cc1)c1c(Cl)cncc1Cl
63 | 95 to 96 | CCSc1ncc(S(N)(=O)=O)s1
64 | 90 to 93 | CCOC(=O)N(c1ccc(Cl)cc1)c1ccccc1[N+](=O)[O-]
65 | 60 to 66 | CCOC(=O)C(=NO)c1cnsn1

Row | Structure (SMILES) | melting point [°C]
66 | COc1cccc(Cl)c1CBr | 44 to 47
67 | CC(C)(Oc1ccc(C#N)cc1Cl)c1ccccc1 | 60 to 62
68 | CCN(CC)Cc1cnc(-c2ncn3c2CN(C)C(=O)c2cc(F)ccc2-3)o1 | 182 to 184
69 | N#Cc1nn(-c2c(Cl)cc(C(F)(F)F)cc2Cl)cc1C(=O)C(F)(F)C(F)(F)C(F)(F)F | 102 to 103
70 | CC1(C)C(C=C(Cl)Cl)C1C(=O)OC(c1cccc(Oc2ccc(F)cc2)n1)C(F)(F)F (stereo not given) | 69 to 72
